Results from patent publication US9029542B2 (priority 2011, dated 2015).
Where “and” joins values, the source holds several entries; their conditions need not be identical. Equal entries are not always repeated. Where two headings read alike, the source gives them in different places.

What was measured:
Amaranthus retroflexus = assay: whole plant or invertebrate; type: in vivo; conditions: for pest or weed control at 150 g/ha: Amaranthus retroflexus, 600 h, read-out: weed clearing activity, Amaranthus retroflexus Postemergence
Sorghum = assay: whole plant or invertebrate; type: in vivo
rape = assay: animal or person; type: in vivo
Radish = assay: whole plant or invertebrate; type: in vivo; conditions: Raphanus sativus
Eclipta prostrata = assay: whole plant or invertebrate; type: in vivo; conditions: for pest or weed control at 150 g/ha: Eclipta prostrata, 600 h, read-out: weed clearing activity, Eclipta prostrata Postemergence; for Weed clearing activity, Eclipta prostrata, Postemergence: in vivo
cockspur grass = assay: whole plant or invertebrate; type: in vivo; conditions: Echinochloa crus-galli
Abutilon theophrasti = assay: whole plant or invertebrate; type: in vivo; conditions: for pest or weed control at 150 g/ha: Abutilon theophrasti, 600 h, read-out: Postemergence weed clearing activity, Abutilon theophrasti
Capsella bursa-pastoris = assay: whole plant or invertebrate; type: in vivo; conditions: 600 h, read-out: weed clearing activity, Capsella bursa-pastoris Postemergence
Wheat = assay: whole plant or invertebrate; type: in vivo; conditions: Triticum aestivum
Cucumber = assay: whole plant or invertebrate; type: in vivo; conditions: Cucumis sativus
[1] = system: weeds of the expanded weed killing spectrum; conditions: in vivo
[2] = read-out: inhibitory activity, Sorghum Root
[3] = read-out: inhibitory activity, Sorghum Stem
[4] = read-out: inhibitory activity, Rape Root
[5] = read-out: inhibitory activity, Rape Stem
[6] = read-out: inhibitory activity, Radish Root
[7] = read-out: inhibitory activity, Radish Stem
[8] = read-out: inhibitory activity, Cockspur grass Root
[9] = read-out: inhibitory activity, Cockspur grass Stem
[10] = read-out: inhibitory activity, Wheat Root
[11] = read-out: inhibitory activity, Wheat Stem
[12] = read-out: inhibitory activity, Cucumber Root
[13] = read-out: inhibitory activity, Cucumber Stem

SMILES | pest or weed control at 150 g/ha (Amaranthus retroflexus) [%] | inhibition at 100 µg/mL (Sorghum; [2]) [%] | inhibition at 100 µg/mL (Sorghum; [3]) [%] | inhibition at 100 µg/mL (rape; [4]) [%] | inhibition at 100 µg/mL (rape; [5]) [%] | inhibition at 100 µg/mL (Radish; [6]) [%] | inhibition at 100 µg/mL (Radish; [7]) [%] | pest or weed control at 150 g/ha (Eclipta prostrata) [%] | inhibition at 100 µg/mL (cockspur grass; [8]) [%] | inhibition at 100 µg/mL (cockspur grass; [9]) [%] | pest or weed control at 150 g/ha (Abutilon theophrasti) [%] | pest or weed control at 150 g/ha (Capsella bursa-pastoris) [%] | inhibition at 100 µg/mL (Wheat; [10]) [%] | inhibition at 100 µg/mL (Wheat; [11]) [%] | inhibition at 100 µg/mL (Cucumber; [12]) [%] | inhibition at 100 µg/mL (Cucumber; [13]) [%] | Weed clearing activity, Eclipta prostrata, Postemergence (Eclipta prostrata) | also measured
CC(Oc1ccc(F)cc1)C(=O)OC(C)P1(=O)OCC(C)(C)CO1 (stereo not drawn) [Compound 44, 2-(4-fluorphenoxyisopropylacyloxy)(methyl)methyl-5,5-dimethyl-1,3,2-dioxaphosphorinan-2-one phosphonate] | 50 | 0 | 0 | 100 | 30 | 80 | 30 | 60 | 0 | 0 | 60 | 70 | 0 | 0 | 30 | 30 |  | 
CC(OC(=O)COc1ccc(F)cc1Cl)P1(=O)OCC(C)(C)CO1 (stereo not drawn) [Compound 37, 2-(2-chloro-4-fluorphenoxyethylacyloxy)(methyl)methyl-5,5-dimethyl-1,3,2-dioxaphosphorinan-2-one phosphonate] | 90 | 0 | 0 | 100 | 100 | 90 | 30 | 85 | 0 | 0 | 90 | 95 | 60 | 30 | 60 | 30 | 60% and 85% | Weed clearing activity, Amaranthus retroflexus, Postemergence (Amaranthus retroflexus; in vivo): 60%; Activity of expanded weed killing spectrum, Alligator alternanthera [1]: 60%; Activity of expanded weed killing spectrum, Ammania [1]: 60%; Activity of expanded weed killing spectrum, Cabbage [1]: 70%; Activity of expanded weed killing spectrum, Cayenne pepper [1]: 60% and 75%; Activity of expanded weed killing spectrum, Cucumis sativus [1]: 60% and 70%; Activity of expanded weed killing spectrum, Eclipta prostrata [1]: 60%; Activity of expanded weed killing spectrum, Monochoria [1]: 50%; Activity of expanded weed killing spectrum, Rape [1]: 70% and 75%; Activity of expanded weed killing spectrum, Rumex acetosa [1]: 70% and 75%; Activity of expanded weed killing spectrum, Vicia cracca [1]: 70%; Weed clearing activity, Abutilon theophrasti, Postemergence (Abutilon theophrasti; in vivo): 70%
CC(OC(=O)COc1cccc(C(F)(F)F)c1)P1(=O)OCC(C)(C)CO1 (stereo not drawn) [Compound 45, 2-(3-trifluormethylphenoxyethylacyloxy)(methyl)methyl-5,5-dimethyl-1,3,2-dioxaphosphorinan-2-one phosphonate] | 50 | 70 | 60 | 85 | 30 | 90 | 60 | 50 | 0 | 0 | 75 | 85 | 80 | 60 | 98 | 50 |  | 
Cc1cc(Cl)ccc1OCC(=O)OC(C)P1(=O)OCC(C)(C)CO1 (stereo not drawn) [Compound 34, 2-(2-methyl-4-chlorophenoxyethylacyloxy)(methyl)methyl-5,5-dimethyl-1,3,2-dioxaphosphorinan-2-one phosphonate] | 90 | 100 | 100 | 100 | 100 | 100 | 100 | 80 | 70 | 80 | 75 | 90 | 90 | 60 | 100 | 100 | 85% | Activity of expanded weed killing spectrum, Alligator alternanthera [1]: 60% and 70%; Activity of expanded weed killing spectrum, Ammania [1]: 50% and 60%; Activity of expanded weed killing spectrum, Cabbage [1]: 70%; Activity of expanded weed killing spectrum, Capsella bursa-pastoris [1]: 85%; Activity of expanded weed killing spectrum, Cayenne pepper [1]: 70%; Activity of expanded weed killing spectrum, Cucumis sativus [1]: 60% and 70%; Activity of expanded weed killing spectrum, Monochoria [1]: 30% and 60%; Activity of expanded weed killing spectrum, Pakchoi [1]: 70%; Activity of expanded weed killing spectrum, Pigweed [1]: 70% and 75%; Activity of expanded weed killing spectrum, Rape [1]: 85%; Activity of expanded weed killing spectrum, Rumex acetosa [1]: 70% and 75%; Activity of expanded weed killing spectrum, Tomato [1]: 60% and 70%; Activity of expanded weed killing spectrum, Vicia cracca [1]: 70%
CC(Oc1ccc(Cl)cc1Cl)C(=O)OC(C)P1(=O)OCC(C)(C)CO1 (stereo not drawn) [Compound 39, 2-(2,4-dichlorophenoxyisopropylacyloxy)(methyl)methyl-5,5-dimethyl-1,3,2-dioxaphosphorinan-2-one phosphonate] | 70 | 70 | 60 | 100 | 40 | 100 | 30 | 60 | 0 | 0 | 70 | 80 | 60 | 60 | 80 | 30 |  | 
Cc1cc(OCC(=O)OC(C)P2(=O)OCC(C)(C)CO2)ccc1Cl (stereo not drawn) [Compound 32, 2-(3-methyl-4-chlorophenoxyethylacyloxy)(methyl)methyl-5,5-dimethyl-1,3,2-dioxaphosphorinan-2-one phosphonate] | 60 | 0 | 0 | 90 | 90 | 90 | 60 | 60 | 0 | 0 | 70 | 70 | 0 | 0 | 60 | 90 |  | 
CC(Oc1ccc(F)cc1Cl)C(=O)OC(C)P1(=O)OCC(C)(C)CO1 (stereo not drawn) [Compound 41, 2-(2-chloro-4-fluorphenoxyisopropylacyloxy)(methyl)methyl-5,5-dimethyl-1,3,2-dioxaphosphorinan-2-one phosphonate] | 60 | 70 | 70 | 100 | 90 | 80 | 60 | 60 | 0 | 0 | 70 | 90 | 70 | 40 | 80 | 60 | 60% | 
CC(Oc1ccc(Cl)cc1)C(=O)OC(C)P1(=O)OCC(C)(C)CO1 (stereo not drawn) [Compound 38, 2-(4-chlorophenoxyisopropylacyloxy)(methyl)methyl-5,5-dimethyl-1,3,2-dioxaphosphorinan-2-one phosphonate] | 50 | 0 | 0 | 100 | 100 | 70 | 30 | 60 | 0 | 0 | 60 | 70 | 30 | 30 | 60 | 30 |  | 
